Source: patent publication US11596692B1 (Incyte Corporation, priority 2018, dated 2023)
Where two headings read alike, the source gives them in different places.

What was measured:
[1] = system: IRF3 activation in PD-L1 high HEK293T STING reporter cell line; test: IRF3 activation in HEK293T STING reporter cells, high PD-L1; format: cell-based, human; details: for EC50: 20 hours; for Potency shift: with compound P27 (1 μM) versus no competition
Method: (§1) HEK293T STING reporter cell line was purchased from Invivogen and expressed low level of PD-L1. This cell line was then engineered at Incyte Research Institute to overexpress human PD-L1. Both PD-L1 high and PD-L1 low HEK293T cell lines were plated at 100,000 cells/100 μL/well in 10% fetal calf serum-containing DMEM culture medium in a 96-well flat bottom plate. Serial dilutions of PD-L1 small molecule-conjugated STING agonists were then added to the corresponding wells, and incubated for 20 hours at 37° C. In a competition study setting, 1 μM of a PD-L1 small molecule was added in the corresponding wells to compete with the binding of PD-L1 small molecule-conjugated STING agonists. At the end of the incubation, the culture supernatants were carefully removed from each well, and the amount of IRF3 activation was determined by adding Quanti-Blue substrate in accordance with the manufacturer's protocol.
(§2) 293T-Dual hSTING-R232 (ISG/KI-IFNb) cells that were generated from 293T-Dual Null (ISG/KI-IFNb) cells by stable transfection of the R232 isoform of human STING were purchased from Invivogen (Invivogen #293d-r232).
(§3) This cell line expresses an ISRE-inducible SEAP (secreted embryonic alkaline phosphatase) reporter construct, which monitors the activation of interferon regulatory factor (IRF) and its binding to ISRE (IFN-stimulated response elements). These reporter cells express low level of PD-L1. Human PD-L1 was then overexpressed in these cells through stable transfection.
(§4) These 293T-Dual hSTING-R232 reporter cells as well as293T-Dual hSTING-R232 reporter cells overexpressing huPD-L1 were treated with various concentrations of STING compounds for 20 hours. After 20 hours, interferon regulatory factor (IRF) activity was assessed by measuring SEAP levels in the supernatant using QUNTI-Blue. EC50 values were generated by curve fit in Prism software.

[2] = system: IRF3 activation in PD-L1 low HEK293T STING reporter cell line; test: IRF3 activation in HEK293T STING reporter cells, low PD-L1; format: cell-based, human; details: 20 hours, read-out: IRF Activation EC50 (nM), Low PD-L1
Method: as §1, §2, §3, §4

PD-L1 [3] = target: T1, PD-L1 (Homo sapiens (Human), UniProt Q9NZQ7); test: PD-L1 surface levels on HEK293T STING reporter cells, high PD-L1; format: cell-based
Method: To determine PD-L1 expression on HEK cells after treatment of PD-L1-small molecule conjugated STING agonists, cells were harvested at 20 hours post-treatment. Single cell suspensions were then stained with phycoerythrin-conjugated anti-PD-L1 antibody (BD Bioscience), and the PD-L1 expression were then analyzed by flow cytometry. Mean fluorescence intensity was used as the relative level of surface PD-L1 expression on cells (FIG. 1 and Table 6).
Also, cells were stained with PE-conjugated anti-human PD-L1 antibody to determine surface PD-L1 expression. Cell acquisition was performed on BD LSRFortessa X-20 (BD Biosciences). Data was analyzed using FlowJo software. IC50 values were calculated using Prism Software.

PD-L1 [4] = target: T1, PD-L1; test: Indirect whole blood PD-L1 internalization assay; format: cell-based; details: interferon γ, 18 hours, CD14+ gated
Method: To determine PD-L1 internalization in human whole blood, normal human blood (Biological Specialty Corp, Colmar. Pa.) was incubated in the presence or absence of a concentration range of test compounds and 1 ng/ml human interferon γ (R&D Systems Inc. Minn. Minn.) in a 96 well round bottom plate (Corning, Corning, N.Y.) for 18 hours at 37° C. Blood was then transferred into 96 well “2 ml Assay Block” (Corning, Corning N.Y.) and stained with PD-L1 (MIH1, eBioscience; or BD Biosciences San Jose, Calif.), CD14 (Life Technologies, Carlsbad, Calif.) for 30 minutes in the dark at room temperature. Whole Blood/red cells were lysed/fixed (lysis buffer BD Biosciences) for 5 minutes at 37° C. in dark and then centrifuged at 1600 RPM for 5 minutes and cells were transferred into 96 well round bottom plates (Corning). Cells were gated on CD14+ (BD Biosciences) and PD-L1 expression determined by mean fluorescence intensity (MFI) (BD LSRFortessa™ X-20). IC50 determination was performed by fitting the curve of compound percent inhibition versus the log of the compound concentration using the GraphPad Prism 7.0 software.

IRF3 = IRF3 activation assay in THP-1 Dual cells; format: cell-based; details: Homo sapiens, THP-1, Table 4A; read-out: THP1 IRF3 EC50
Method in brief: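 THP-1 Dual cells (100,000/well) were treated with serially diluted compound for 24 h at 37° C, 5% CO2. IRF3 reporter activity in supernatant was read with QUANTI-Blue as absorbance at 620-655 nm after 2 h, with untreated cells as negative control. EC50 came from fitting percent control activity against log concentration.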

[5] = high PD-L1 cells, read-out: IRF Activation EC50 (nM), High PD-L1
[6] = no competition, read-out: IRF Activation EC50 (nM), No competition
[7] = read-out: IRF Activation EC50 (nM), With compound P27 (1 μM), competition with compound P27 1 μM

T1 sequence (Q9NZQ7 19-290): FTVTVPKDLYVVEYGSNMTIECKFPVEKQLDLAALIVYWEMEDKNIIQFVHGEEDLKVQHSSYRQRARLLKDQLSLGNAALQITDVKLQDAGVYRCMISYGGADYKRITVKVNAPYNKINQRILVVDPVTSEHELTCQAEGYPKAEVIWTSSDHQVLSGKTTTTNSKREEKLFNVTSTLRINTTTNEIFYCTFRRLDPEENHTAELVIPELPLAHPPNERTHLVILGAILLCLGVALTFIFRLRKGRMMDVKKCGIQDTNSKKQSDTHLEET

| SMILES | EC50 [1, 5] [nM] | EC50 [2] [nM] | IC50 (PD-L1 [3]) [nM] | other results |
| --- | --- | --- | --- | --- |
| CCn1nc(C)cc1C(=O)Nc1nc2cc(C(N)=O)cc(OC)c2n1C/C=C/Cn1c(NC(=O)c2cc(C)nn2CC)nc2cc(C(N)=O)cc(OCCCNC(=O)CCNC(=O)OCc3ccc(NC(=O)[C@H](CCCNC(N)=O)NC(=O)[C@@H](NC(=O)CCCN4CCc5c(nc(C(=O)Nc6cccc(-c7cccc(NC(=O)c8nc9c(n8C)CCN(CCCC(=O)N[C@@H](CC(=O)O)C(=O)O)C9)c7Cl)c6Cl)n5C)C4)C(C)C)cc3)c21 [Example 3] | < 50 | 200 to 1000 |  | EC50 [1, 6]: < 50 nM; EC50 [1, 7]: 200 to 1000 nM; Potency shift [1]: >20 |
| CCn1nc(C)cc1C(=O)Nc1nc2cc(C(N)=O)cc(OC)c2n1C/C=C/Cn1c(NC(=O)c2cc(C)nn2CC)nc2cc(C(N)=O)cc(OCCCNC(=O)CCNC(=O)OCc3ccc(NC(=O)[C@H](CCCNC(N)=O)NC(=O)[C@@H](CC(=O)Cn4cc(CCNC(=O)[C@H](CC(=O)O)NC(=O)[C@H](CC(=O)O)NC(=O)[C@H](CCCNC(=N)N)NC(=O)[C@H](CC(=O)O)NC(=O)CCCN5CCc6c(nc(C(=O)Nc7cccc(-c8cccc(NC(=O)c9nc%10c(n9C)CCN(CCCC(=O)O)C%10)c8Cl)c7Cl)n6C)C5)nn4)C(C)C)cc3)c21 [Example 4] | < 50 | 200 to 1000 |  | EC50 [1, 6]: < 50 nM; EC50 [1, 7]: 200 to 1000 nM; Potency shift [1]: >20 |
| CCn1nc(C)cc1C(=O)Nc1nc2cc(C(N)=O)cc(OC)c2n1C/C=C/Cn1c(NC(=O)c2cc(C)nn2CC)nc2cc(C(N)=O)cc(OCCCNC(=O)[C@H](CC(=O)O)NC(=O)[C@H](CC(=O)O)NC(=O)[C@H](CCCNC(=N)N)NC(=O)[C@H](CC(=O)O)NC(=O)CCNC(=O)C3CCN(Cc4cc(C#N)c5oc(-c6cccc(-c7cccc(Nc8nc(C(F)F)nc9cc(CN%10CC[C@@H](O)C%10)cnc89)c7C)c6C)nc5c4)CC3)c21 [Example 8] | < 50 | 50 to 200 | 200 to 1000 |  |
| CCn1nc(C)cc1C(=O)Nc1nc2cc(C(N)=O)cc(OCCCNC(=O)CCNC(=O)OCc3ccc(NC(=O)[C@H](CCCNC(N)=O)NC(=O)[C@@H](NC(=O)Cn4cc(CCNC(=O)[C@H](CC(=O)O)NC(=O)[C@H](CC(=O)O)NC(=O)[C@H](CCCNC(=N)N)NC(=O)[C@H](CC(=O)O)NC(=O)CCCN5CCc6c(nc(C(=O)Nc7cccc(-c8cccc(NC(=O)c9nc%10c(n9C)CCN(CCCC(=O)O)C%10)c8Cl)c7Cl)n6C)C5)nn4)C(C)C)cc3)c2n1C/C=C/Cn1c2nc(-c3cc(C)nn3CC)ncc2c2cc(C(N)=O)cc(OC)c21 [Example 9] | < 50 | 200 to 1000 | 50 to 200 |  |
| CCn1nc(C)cc1C(=O)Nc1nc2cc(C(N)=O)cc(OC)c2n1C/C=C/Cn1c(NC(=O)c2cc(C)nn2CC)nc2cc(C(N)=O)cc(OCCCNC(=O)[C@H](CC(=O)O)NC(=O)[C@H](CC(=O)O)NC(=O)CCCN3CCc4c(nc(C(=O)Nc5cccc(-c6cccc(NC(=O)c7nc8c(n7C)CCN(CCCC(=O)O)C8)c6Cl)c5Cl)n4C)C3)c21 [Example 10] | < 50 | 50 to 200 |  | IC50 (PD-L1 [3]; high PD-L1 cells, 20 hours, read-out: PD-L1 Internalization IC50 (nM), High PD-L1): < 50 nM |
| CCn1nc(C)cc1C(=O)Nc1nc2cc(C(N)=O)cc(OC)c2n1C/C=C/Cn1c(NC(=O)c2cc(C)nn2CC)nc2cc(C(N)=O)cc(OCCCNC(=O)[C@H](CC(=O)O)NC(=O)[C@H](CC(=O)O)NC(=O)[C@H](CC(=O)O)NC(=O)[C@H](CC(=O)O)NC(=O)CCCN3CCc4c(nc(C(=O)Nc5cccc(-c6cccc(NC(=O)c7nc8c(n7C)CCN(CCCC(=O)O)C8)c6Cl)c5Cl)n4C)C3)c21 [Example 12] | < 50 | 50 to 200 |  |  |
| CCn1nc(C)cc1C(=O)Nc1nc2cc(C(N)=O)cc(OC)c2n1C/C=C/Cn1c(NC(=O)c2cc(C)nn2CC)nc2cc(C(N)=O)cc(OCCCNC(=O)[C@H](CC(=O)O)NC(=O)[C@H](CC(=O)O)NC(=O)[C@H](CC(=O)O)NC(=O)[C@H](CC(=O)O)NC(=O)[C@H](CC(=O)O)NC(=O)CCCN3CCc4c(nc(C(=O)Nc5cccc(-c6cccc(NC(=O)c7nc8c(n7C)CCN(CCCC(=O)O)C8)c6Cl)c5Cl)n4C)C3)c21 [Example 13] | < 50 | 50 to 200 | < 50 |  |
| CCn1nc(C)cc1C(=O)Nc1nc2cc(C(N)=O)cc(OC)c2n1C/C=C/Cn1c(NC(=O)c2cc(C)nn2CC)nc2cc(C(N)=O)cc(OCCCNC(=O)[C@H](CC(=O)O)NC(=O)[C@H](CC(=O)O)NC(=O)[C@H](CC(=O)O)NC(=O)[C@H](CC(=O)O)NC(=O)[C@H](CC(=O)O)NC(=O)[C@H](CC(=O)O)NC(=O)[C@H](CC(=O)O)NC(=O)CCCN3CCc4c(nc(C(=O)Nc5cccc(-c6cccc(NC(=O)c7nc8c(n7C)CCN(CCCC(=O)O)C8)c6Cl)c5Cl)n4C)C3)c21 [Example 14] | < 50 | 50 to 200 | < 50 |  |
| Cc1c(NC(=O)c2ccc(CNCCO)cn2)cccc1-c1cccc(NC(=O)c2ccc(CNCCO)cn2)c1Cl [Example P7] |  |  |  | IC50 (PD-L1 [4]): < 100 nM |
| Cc1c(-c2nc3cc(CN4CC[C@H](C(=O)O)C4)cc(C#N)c3o2)cccc1-c1cccc(NC(=O)c2nc3c(n2C)CCN(C)C3)c1Cl [Example P11] |  |  |  | IC50 (PD-L1 [4]): < 100 nM |
| CCn1nc(C)cc1C(=O)Nc1nc2cc(C(N)=O)c3ccoc3c2n1C/C=C/Cn1c2nc(-c3cc(C)nn3CC)ncc2c2cc(C(N)=O)cc(OC)c21 [Example S67, (E)-1-(4-(6-carbamoyl-2-(1-ethyl-3-methyl-1H-pyrazol-5-yl)-8-methoxy-9H-pyrimido[4,5-b]indol-9-yl)but-2-en-1-yl)-2-(1-ethyl-3-methyl-1H-pyrazole-5-carboxamido)-1H-benzofuro[6,7-d]imidazole-5-carboxamide] |  |  |  | EC50 (IRF3): ≤ 100 nM |
| CCn1nc(C)cc1C(=O)Nc1nc2cc(C(N)=O)c3ccoc3c2n1C/C=C/Cn1c2nc(-c3cc(C)nn3CC)ncc2c2cc(C(N)=O)cc(OCCCOC)c21 [Example S68, (E)-1-(4-(6-carbamoyl-2-(1-ethyl-3-methyl-1H-pyrazol-5-yl)-8-(3-methoxypropoxy)-9H-pyrimido[4,5-b]indol-9-yl)but-2-en-1-yl)-2-(1-ethyl-3-methyl-1H-pyrazole-5-carboxamido)-1H-benzofuro[6,7-d]imidazole-5-carboxamide] |  |  |  | EC50 (IRF3): ≤ 100 nM |
| CCn1nc(C)cc1C(=O)Nc1nc2cc(C(N)=O)c3ccoc3c2n1C/C=C/Cn1c2nc(-c3cc(C)nn3CC)ncc2c2cc(C(N)=O)cc(OCCCO)c21 [Example S69, (E)-1-(4-(6-carbamoyl-2-(1-ethyl-3-methyl-1H-pyrazol-5-yl)-8-(3-hydroxypropoxy)-9H-pyrimido[4,5-b]indol-9-yl)but-2-en-1-yl)-2-(1-ethyl-3-methyl-1H-pyrazole-5-carboxamido)-1H-benzofuro[6,7-d]imidazole-5-carboxamide] |  |  |  | EC50 (IRF3): ≤ 100 nM |
